{"source": "patent US11013730B1", "about": "“Composition comprising selenazol or thiazalone derivatives and silver and method of treatment therewith” (Thioredoxin Systems AB, priority 2014, dated 2021)", "key": {"E. coli TrxR": {"target": "E. coli TrxR (Escherichia coli, UniProt P0A9P4)", "sequence (P0A9P4 whole entry)": "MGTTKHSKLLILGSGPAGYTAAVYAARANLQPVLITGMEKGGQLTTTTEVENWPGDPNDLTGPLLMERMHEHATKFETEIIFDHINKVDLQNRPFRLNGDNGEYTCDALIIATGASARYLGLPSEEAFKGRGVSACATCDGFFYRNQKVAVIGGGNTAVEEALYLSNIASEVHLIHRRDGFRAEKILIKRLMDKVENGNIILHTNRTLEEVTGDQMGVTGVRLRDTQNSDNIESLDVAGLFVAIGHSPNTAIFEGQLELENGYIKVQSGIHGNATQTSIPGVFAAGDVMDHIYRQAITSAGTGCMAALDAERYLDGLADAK", "assay": "E. coli TrxR inhibition, thioredoxin dependent DTNB reduction assay", "type": "biochemical", "protocol": "Further we examined the effect of ebselen in the reduction of disulfide by E. coli Trx and TrxR using both DTNB and insulin as substrates.\nAll the benzisoselenazol-3(2H)-one and bisbenzisoselenazol-3(2H)-one derivatives were tested as potential E. coli TrxR inhibitors by standard DTNB assay. […] The reactions were started by adding 1 mM DTNB to the mixture of 100 nM TrxR, 2 μM Trx, 240 μM NADPH, and different concentration of inhibitor (1-40 μM). […] The reactions were started by adding 6 nM TrxR at room temperature. Inhibition constants (Ki) for all the compounds were measured from Dixon plot, which plots 1/v versus […], I=Inhibitor concentration)."}, "[1]": {"assay": "Glutathione peroxidase (GPx) activity of the compounds", "type": "biochemical", "conditions": "for Relative GPx activity: EbSe 6 = 1"}, "HEK 293T cells": {"system": "HEK 293T cells", "assay": "HEK 293T cells growth (cytotoxicity)", "type": "cell-based"}, "recombinant rat TrxR": {"target": "T1, recombinant rat TrxR (Rattus norvegicus, UniProt O89049)", "T1 sequence (O89049 1-499)": "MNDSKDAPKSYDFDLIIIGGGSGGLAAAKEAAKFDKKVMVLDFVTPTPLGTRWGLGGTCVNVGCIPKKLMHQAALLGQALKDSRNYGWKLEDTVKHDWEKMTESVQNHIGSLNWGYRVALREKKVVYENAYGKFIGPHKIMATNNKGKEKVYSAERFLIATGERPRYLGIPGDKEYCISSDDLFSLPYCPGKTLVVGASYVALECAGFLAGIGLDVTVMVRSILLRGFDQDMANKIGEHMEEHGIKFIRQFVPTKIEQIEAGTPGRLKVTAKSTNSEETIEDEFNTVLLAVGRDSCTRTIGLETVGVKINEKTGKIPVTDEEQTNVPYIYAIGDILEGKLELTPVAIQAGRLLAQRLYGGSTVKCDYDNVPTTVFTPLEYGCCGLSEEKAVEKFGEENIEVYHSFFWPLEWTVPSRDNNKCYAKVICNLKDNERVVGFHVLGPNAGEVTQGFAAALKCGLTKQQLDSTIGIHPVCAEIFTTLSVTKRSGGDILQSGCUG", "assay": "Inhibition of mammalian (recombinant rat) TrxR"}, "Gor DHB4 E. coli": {"system": "Gor DHB4 E. coli", "assay": "Inhibition of bacterial growth (MIC), Gor DHB4 E. coli", "conditions": "for MIC: Escherichia coli, DHB4E.COLI, read-out: MIC for Gor DHB4 E. coli", "source_text": "(§1) Here E. coli DHB4 strains wt, gshA^−, gor^−, oxyR^− were used as the model to test the antibiotics activity of these ebselen derivatives."}, "gshA^− DHB4 E. coli": {"system": "gshA^− DHB4 E. coli", "assay": "Inhibition of bacterial growth (MIC), gshA^− DHB4 E. coli", "conditions": "for sensitivity of gshA^− / gor^− strains compared with wild type: E. coli strains wt; for MIC: Escherichia coli, read-out: MIC for gshA^− DHB4 E. coli", "source_text": "as §1"}, "wild type DHB4 E. coli": {"system": "wild type DHB4 E. coli", "assay": "Inhibition of bacterial growth (MIC), wild type DHB4 E. coli", "conditions": "for MIC: Escherichia coli, DHB4E.COLI, read-out: MIC for wild type DHB4 E. coli", "source_text": "as §1"}, "H. pylori strains": {"system": "H. pylori strains", "assay": "MIC against H. pylori strains", "conditions": "Helicobacter pylori"}, "E. coli": {"system": "E. coli", "type": "cell-based, Escherichia coli", "conditions": "16 h"}, "[2]": {"conditions": "DTNB assay, 100 nM TrxR, 2 μM Trx, 240 μM NADPH, 1 mM DTNB, read-out: IC50 for E. coli TrxR"}, "[3]": {"conditions": "Dixon plot, 6 nM TrxR, Trx 1, 2 or 4 μM"}, "[4]": {"conditions": "Homo sapiens, HEK-293T; read-out: IG50 for HEK 293T"}, "[5]": {"conditions": "Dixon plot, 6 nM TrxR, Trx 1, 2 or 4 μM, read-out: Ki for E. coli TrxR"}, "[6]": {"conditions": "Homo sapiens, HEK-293T, read-out: IG50 for HEK 293T"}}, "note": "Like-named read-outs stand apart in the source and are kept apart here.", "data": [{"smiles": "O=C(O)c1ccc(-n2[se]c3ccccc3c2=O)cc1", "note": "[EbSe 10]", "values": [{"measurement": "IC50", "setting": "E. coli TrxR; [2]", "result": 15, "unit": "µM"}, {"measurement": "Ki for E. coli TrxR", "setting": "E. coli TrxR; [3]", "result": "Not detected"}, {"measurement": "Relative GPx activity", "setting": "[1]", "result": 1.8}, {"measurement": "IC50", "setting": "HEK 293T cells; [4]", "result": 55, "unit": "µM"}, {"measurement": "IC50", "setting": "recombinant rat TrxR", "result": "> 10", "unit": "µM"}]}, {"smiles": "O=c1c2ccccc2[se]n1-c1ccc(Cl)cc1", "note": "[EbSe 11]", "values": [{"measurement": "IC50", "setting": "E. coli TrxR", "result": "> 40", "unit": "µM"}, {"measurement": "Ki", "setting": "E. coli TrxR", "result": 0.3, "unit": "µM"}, {"measurement": "Ki for E. coli TrxR", "setting": "E. coli TrxR; [3]", "result": "Not detected"}, {"measurement": "Relative GPx activity", "setting": "[1]", "result": 0.87}, {"measurement": "IC50", "setting": "HEK 293T cells; read-out: IG50 for HEK 293T", "result": "> 160", "unit": "µM"}, {"measurement": "MIC for Gor DHB4 E. coli", "setting": "Gor DHB4 E. coli", "result": "No Inhibition"}, {"measurement": "MIC for gshA^− DHB4 E. coli", "setting": "gshA^− DHB4 E. coli", "result": "No Inhibition"}, {"measurement": "MIC for wild type DHB4 E. coli", "setting": "wild type DHB4 E. coli", "result": "No Inhibition"}]}, {"smiles": "O=c1c2ccccc2[se]n1-c1ccccc1[N+](=O)[O-]", "note": "[EbSe 12]", "values": [{"measurement": "IC50", "setting": "E. coli TrxR; [2]", "result": 3, "unit": "µM"}, {"measurement": "Ki", "setting": "E. coli TrxR; [5]", "result": 0.25, "unit": "µM"}, {"measurement": "GPx activity (in words)", "setting": "[1]", "result": "no GPx activity"}, {"measurement": "Relative GPx activity", "setting": "[1]", "result": 0.93}, {"measurement": "IC50", "setting": "HEK 293T cells; [6]", "result": 80, "unit": "µM"}, {"measurement": "IC50", "setting": "recombinant rat TrxR", "result": "> 10", "unit": "µM"}, {"measurement": "MIC for Gor DHB4 E. coli", "setting": "Gor DHB4 E. coli", "result": "No Inhibition"}, {"measurement": "MIC for gshA^− DHB4 E. coli", "setting": "gshA^− DHB4 E. coli", "result": "No Inhibition"}, {"measurement": "sensitivity of gshA^− / gor^− strains compared with wild type", "setting": "gshA^− DHB4 E. coli", "result": "same sensitivity"}, {"measurement": "MIC for wild type DHB4 E. coli", "setting": "wild type DHB4 E. coli", "result": "No Inhibition"}]}, {"smiles": "O=c1c2ccccc2[se]n1-c1ccncc1", "note": "[EbSe 13]", "values": [{"measurement": "IC50", "setting": "E. coli TrxR; [2]", "result": 3, "unit": "µM"}, {"measurement": "Ki", "setting": "E. coli TrxR; [5]", "result": 1.5, "unit": "µM"}, {"measurement": "Relative GPx activity", "setting": "[1]", "result": 1.4}, {"measurement": "IC50", "setting": "HEK 293T cells; [4]", "result": 60, "unit": "µM"}, {"measurement": "IC50", "setting": "recombinant rat TrxR", "result": "> 10", "unit": "µM"}, {"measurement": "MIC", "setting": "Gor DHB4 E. coli", "result": 24, "unit": "µM"}, {"measurement": "MIC", "setting": "gshA^− DHB4 E. coli", "result": 21, "unit": "µM"}, {"measurement": "MIC", "setting": "wild type DHB4 E. coli", "result": 45, "unit": "µM"}]}, {"smiles": "O=c1c2ccccc2[se]n1CCn1[se]c2ccccc2c1=O", "note": "[EbSe 14]", "values": [{"measurement": "IC50", "setting": "E. coli TrxR; [2]", "result": 2, "unit": "µM"}, {"measurement": "Ki", "setting": "E. coli TrxR; [5]", "result": 0.05, "unit": "µM"}, {"measurement": "MIC", "setting": "Gor DHB4 E. coli", "result": 19, "unit": "µM"}, {"measurement": "sensitivity of gshA^− / gor^− strains compared with wild type", "setting": "gshA^− DHB4 E. coli", "result": "same sensitivity"}, {"measurement": "MIC", "setting": "gshA^− DHB4 E. coli", "result": 23, "unit": "µM"}, {"measurement": "MIC", "setting": "wild type DHB4 E. coli", "result": 23, "unit": "µM"}]}, {"smiles": "O=c1c2ccccc2[se]n1CCCn1[se]c2ccccc2c1=O", "note": "[EbSe 15]", "values": [{"measurement": "Ki", "setting": "E. coli TrxR", "result": 0.038, "unit": "µM"}, {"measurement": "IC50", "setting": "E. coli TrxR; [2]", "result": 2.1, "unit": "µM"}, {"measurement": "IC50", "setting": "HEK 293T cells; [4]", "result": 9.5, "unit": "µM"}]}, {"smiles": "O=c1c2ccccc2[se]n1CCCCCCn1[se]c2ccccc2c1=O", "note": "[EbSe 16]", "values": [{"measurement": "IC50", "setting": "E. coli TrxR; [2]", "result": 2.25, "unit": "µM"}, {"measurement": "Ki", "setting": "E. coli TrxR; [5]", "result": 0.025, "unit": "µM"}, {"measurement": "Ki", "setting": "E. coli TrxR; for the selenium released stock, read-out: Ki for E. coli TrxR, selenium released stock", "result": 0.01, "unit": "µM"}, {"measurement": "IC50", "setting": "HEK 293T cells; [6]", "result": 9.2, "unit": "µM"}, {"measurement": "MIC", "setting": "Gor DHB4 E. coli", "result": 35, "unit": "µM"}, {"measurement": "sensitivity of gshA^− / gor^− strains compared with wild type", "setting": "gshA^− DHB4 E. coli", "result": "same sensitivity"}, {"measurement": "MIC", "setting": "gshA^− DHB4 E. coli", "result": 20, "unit": "µM"}, {"measurement": "MIC", "setting": "wild type DHB4 E. coli", "result": 20, "unit": "µM"}]}, {"smiles": "CCOC(=O)c1cccnc1[Se]Nc1ccc(Cl)cc1", "note": "[EbSe 22]", "values": [{"measurement": "IC50", "setting": "E. coli TrxR; [2]", "result": "> 10", "unit": "µM"}, {"measurement": "Ki", "setting": "E. coli TrxR; [5]", "result": 7.5, "unit": "µM"}]}, {"smiles": "CCOC(=O)c1cccnc1[Se]Nc1ccc(Cl)cn1", "note": "[compound 2]", "values": [{"measurement": "IC50", "setting": "E. coli TrxR; [2]", "result": "> 10", "unit": "µM"}, {"measurement": "Ki", "setting": "E. coli TrxR; [5]", "result": 7.5, "unit": "µM"}, {"measurement": "IC50", "setting": "HEK 293T cells; [6]", "result": 60, "unit": "µM"}, {"measurement": "MIC for Gor DHB4 E. coli", "setting": "Gor DHB4 E. coli", "result": "No Inhibition"}, {"measurement": "MIC for gshA^− DHB4 E. coli", "setting": "gshA^− DHB4 E. coli", "result": "No Inhibition"}, {"measurement": "MIC for wild type DHB4 E. coli", "setting": "wild type DHB4 E. coli", "result": "No Inhibition"}]}, {"smiles": "Cc1ncc([N+](=O)[O-])n1CCO", "note": "[metronidazole]", "values": [{"measurement": "MIC", "setting": "H. pylori strains", "result": 6.25, "unit": "µg/mL"}, {"measurement": "MIC", "setting": "H. pylori strains; NCTC11637", "result": 0.78, "unit": "µg/mL"}]}, {"smiles": "O=[N+]([O-])[O-].[Ag+]", "note": "[silver, Silver nitrate]", "values": [{"measurement": "MIC, silver alone", "setting": "E. coli", "result": "about 42 μM"}, {"measurement": "MIC for silver", "setting": "E. coli; in the presence of 2 μM ebselen", "result": 8.4, "unit": "µM"}, {"measurement": "silver concentration that inhibited E. coli growth", "setting": "E. coli; in the presence of 8 μM ebselen", "result": 1, "unit": "µM"}]}]}
